Read-outs that look alike come from different tables or passages of the source.
Assays:
[1] = test system: DU4475; assay: Cell-based assay: anti-proliferative activity, Cell Counting Kit-8, 72 hours (DU4475); conditions: Homo sapiens, DU-4475, DU4475 cells
[2] = test system: HT-1197 cells; assay: Cell-based assay: anti-proliferative activity, Cell Counting Kit-8, 72 hours (HT-1197, negative control without MELK expression); conditions: Homo sapiens, HT1197, 72 h, HT1197 cells (negative control, no MELK expression), 72 hours
Method in brief: (§1)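 Proliferation read with Cell Counting Kit-8 after 72 hours of inhibitor treatment, from seeding of 2,000–3,000 cells/well. Lines: T47D, A549, BT-549; HT-1197, lacking MELK by western blot, served as negative control. IC50 derived.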

[3] = target: MELK (Homo sapiens, UniProt Q14680); assay: Kinase assay: MELK activity, phosphorylation of FITC-labeled histone H3 peptide measured by IMAP fluorescence polarization; format: biochemical; conditions: read-out: IC50 (μM) (kinase assay)
Chain of MELK (Q14680 whole entry, looked up): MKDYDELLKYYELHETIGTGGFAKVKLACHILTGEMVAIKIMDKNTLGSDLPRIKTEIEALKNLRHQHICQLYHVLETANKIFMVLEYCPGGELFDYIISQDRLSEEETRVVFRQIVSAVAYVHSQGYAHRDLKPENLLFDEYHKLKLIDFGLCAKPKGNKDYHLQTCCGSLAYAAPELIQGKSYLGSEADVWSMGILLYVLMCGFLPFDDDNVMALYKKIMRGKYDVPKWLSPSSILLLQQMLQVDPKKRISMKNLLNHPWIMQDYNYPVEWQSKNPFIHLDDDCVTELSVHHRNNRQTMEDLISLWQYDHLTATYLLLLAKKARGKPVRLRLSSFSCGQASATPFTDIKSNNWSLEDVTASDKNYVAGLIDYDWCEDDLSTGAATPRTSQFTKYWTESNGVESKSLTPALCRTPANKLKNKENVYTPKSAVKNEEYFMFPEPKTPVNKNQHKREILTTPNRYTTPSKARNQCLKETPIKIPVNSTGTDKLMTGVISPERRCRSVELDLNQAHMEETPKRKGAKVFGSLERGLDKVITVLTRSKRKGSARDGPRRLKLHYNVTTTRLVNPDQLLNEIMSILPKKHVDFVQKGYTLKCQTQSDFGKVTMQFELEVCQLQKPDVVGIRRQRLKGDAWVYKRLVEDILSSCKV
Method in brief: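 Fluorescence polarization was measured 0.5 h (room temperature) after quenching with threefold volume of progressive binding solution. Test compounds from 12.5 mM DMSO stocks were assayed at 1% DMSO.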

[4] = test system: T47D cells; assay: Cell-based assay: anti-proliferative activity, Cell Counting Kit-8, 72 hours (T47D); conditions: Homo sapiens, T47D, 72 h
Method in brief: as §1

[5] = test system: A549 cells; assay: Cell-based assay: anti-proliferative activity, Cell Counting Kit-8, 72 hours (A549); conditions: Homo sapiens, A549, 72 h, 72 hours
Method in brief: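 A549 cells were seeded in 96-well plates and exposed to candidate inhibitors for 72 hours. Cell growth was then measured with Cell Counting Kit-8, and IC50 values were calculated from the resulting growth data.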

[6] = 50 micro-M ATP, FITC-labeled histone H3 peptide substrate, IMAP fluorescence polarization

Row | Compound | IC50 [1] | IC50 [2] | IC50 [3, 6] | IC50 [4] | IC50 [5] | IC50 [3]
1 | N#Cc1ncc(-c2ccc3ncc(C(=O)C4CC4)c(Nc4ccc(CN5CCOCC5)cc4)c3c2)cn1 [Example 461] | 0.41 µM | 2 µM | 0.015 µM | 0.17 µM | 1.6 µM | –
2 | CN1CCN(c2ccc(Nc3c(C(=O)C4CC4)cnc4ccc(-c5cc(F)c(O)c(Cl)c5)cc34)cn2)CC1 [Example 471] | 0.14 µM | 2.8 µM | – | 0.14 µM | 0.21 µM | 0.011 µM
3 | COc1cc(-c2ccc3ncc(C(=O)C4CC4)c(Nc4ccc(CN5CCOCC5)cc4)c3c2)cc(Cl)c1O [Example 462] | 1.1 µM | 6 µM | 0.066 µM | 0.44 µM | 0.7 µM | –
4 | COc1cc(-c2ccc3ncc(C(=O)C(C)C)c(N[C@H]4CC[C@H](N)CC4)c3c2)cc(Cl)c1O [Example 502, 1-(4-((trans-4-aminocyclohexyl)amino)-6-(3-chloro-4-hydroxy-5-methoxyphenyl)quinolin-3-yl)-2-methylpropan-1-one] | 0.041 µM | 0.31 µM | – | 0.045 µM | 0.1 µM | 0.007 µM
5 | CC(=O)c1cnc2ccc(-c3cnc(C#N)nc3)cc2c1N[C@H]1CC[C@H](CN(C)C)CC1 [Example 418] | 0.5 µM | 1.4 µM | 0.0073 µM | 0.23 µM | 0.95 µM | –
6 | C[S+]([O-])c1cnc2ccc(-c3ccc(O)c(Cl)c3)cc2c1N[C@H]1CC[C@H](N)CC1 (stereo partly shown) [Example 499] | 2.5 µM | 18 µM | – | 2.7 µM | 9.7 µM | 0.036 µM
7 | CN1CCN(c2ccc(Nc3c(C(=O)C4CC4)cnc4ccc(-c5cnc(C#N)nc5)cc34)cn2)CC1 [Example 469] | 0.43 µM | 1.4 µM | – | 0.18 µM | 0.99 µM | 0.0015 µM
8 | O=C(c1cnc2ccc(-c3cc(F)c(O)c(Cl)c3)cc2c1Nc1ccc(Cn2ccnc2)cc1)C1CC1 [Example 489, (4-(4-((1H-imidazol-1-yl)methyl)phenylamino)-6-(3-chloro-5-fluoro-4-hydroxyphenyl)quinolin-3-yl)(cyclopropyl)methanone] | 0.97 µM | 5.1 µM | – | 1.1 µM | 1.4 µM | 0.019 µM
9 | COc1cc(-c2ccc3ncc(C(=O)C4CC4)c(-c4ccc(N5CCN(C)CC5)cc4)c3c2)cc(Cl)c1O [Example 438, (6-(3-chloro-4-hydroxy-5-methoxyphenyl)-4-(4-(4-methylpiperazin-1-yl)phenyl)quinolin-3-yl)(cyclopropyl)methanone] | 0.49 µM | 6.5 µM | 0.018 µM | 0.39 µM | 0.25 µM | –
10 | CCOc1cc(-c2ccc3ncc(C(=O)C4CC4)c(N4CCC(CN(C)C)CC4)c3c2)cc(Cl)c1O [Example 457] | 0.21 µM | 2.4 µM | 0.0024 µM | 0.22 µM | 0.14 µM | –
11 | O=C(c1cnc2ccc(-c3cc(Cl)c(O)c(Cl)c3)cc2c1-c1ccc(OCCN2CCCC2)cc1)C1CC1 [Example 485, cyclopropyl(6-(3,5-dichloro-4-hydroxyphenyl)-4-(4-(2-(pyrrolidin-1-yl)ethoxy)phenyl)quinolin-3-yl)methanone] | 1.2 µM | 10 µM | – | 0.77 µM | 1.2 µM | 0.0056 µM
12 | CN(C)Cc1ccc(Nc2c(S(C)(=O)=O)cnc3ccc(-c4cc(F)c(O)c(Cl)c4)cc23)cc1 [Example 399, 2-chloro-4-(4-(4-((dimethylamino)methyl)phenylamino)-3-(methylsulfonyl)quinolin-6-yl)-6-fluorophenol] | 0.16 µM | 1.9 µM | 0.016 µM | 0.27 µM | 0.47 µM | –
13 | CC(=O)c1cnc2ccc(-c3cc(F)c(O)c(Cl)c3)cc2c1N1CCN(C(=O)CN(C)C)CC1 [Example 484, 1-(4-(3-acetyl-6-(3-chloro-5-fluoro-4-hydroxyphenyl)quinolin-4-yl)piperazin-1-yl)-2-(dimethylamino)ethanone] | 0.58 µM | 17 µM | – | 1.1 µM | 3.4 µM | 0.0069 µM
14 | COc1cc(-c2ccc3ncc(C(=O)C4CC4)c(-c4ccc(C(=O)N5CCN(C)CC5)cc4)c3c2)cc(Cl)c1O [Example 476, (4-(6-(3-chloro-4-hydroxy-5-methoxyphenyl)-3-(cyclopropanecarbonyl)quinolin-4-yl)phenyl)(4-methylpiperazin-1-yl)methanone] | 0.5 µM | 2.1 µM | – | 0.23 µM | 0.31 µM | 0.0081 µM
15 | CN(C)Cc1ccc(Nc2c(C(=O)C3CCCC3)cnc3ccc(-c4cc(F)c(O)c(Cl)c4)cc23)cc1 [Example 388, (6-(3-chloro-5-fluoro-4-hydroxyphenyl)-4-(4-((dimethylamino)methyl)phenylamino)quinolin-3-yl)(cyclopentyl)methanone] | 0.21 µM | 1.5 µM | 0.014 µM | 0.52 µM | 0.52 µM | –
16 | COc1cc(-c2ccc3ncc(C(=O)C4CC4)c(N4CCN(C(=O)CN(C)C)CC4)c3c2)cc(Cl)c1O [Example 437, 1-(4-(6-(3-chloro-4-hydroxy-5-methoxyphenyl)-3-(cyclopropanecarbonyl)quinolin-4-yl)piperazin-1-yl)-2-(dimethylamino)ethanone] | 0.22 µM | 1.7 µM | 0.0011 µM | 0.28 µM | 0.19 µM | –
17 | NCc1ccc(Nc2c(C(=O)C3CC3)cnc3ccc(-c4cc(F)c(O)c(Cl)c4)cc23)cc1 [Example 504, {4-[4-(Aminomethyl)phenylamino]-6-(3-chloro-5-fluoro-4-hydroxyphenyl)quinolin-3-yl}(cyclopropyl)methanone] | 0.019 µM | 0.71 µM | – | 0.084 µM | 0.081 µM | 0.0089 µM
18 | CN(C)CC1CCN(c2c([S+](C)[O-])cnc3ccc(-c4cc(F)c(O)c(Cl)c4)cc23)CC1 (stereo not shown) [Example 467] | 1.2 µM | 35 µM | – | 1.5 µM | 13 µM | 0.011 µM
19 | O=C(c1cnc2ccc(-c3cc(F)c(O)c(Cl)c3)cc2c1Nc1cnc(N2CCNCC2)nc1)C1CC1 [Example 496, (6-(3-chloro-5-fluoro-4-hydroxyphenyl)-4-((2-(piperazin-1-yl)pyrimidin-5-yl)amino)quinolin-3-yl)(cyclopropyl)methanone] | 0.068 µM | 0.64 µM | – | 0.036 µM | 0.079 µM | 0.0048 µM
20 | CN1CCN(Cc2cccc(-c3c(C(=O)C4CC4)cnc4ccc(-c5cc(Cl)c(O)c(Cl)c5)cc34)c2)CC1 [Example 478, cyclopropyl(6-(3,5-dichloro-4-hydroxyphenyl)-4-(3-((4-methylpiperazin-1-yl)methyl)phenyl)quinolin-3-yl)methanone] | 0.75 µM | 2.9 µM | – | 0.53 µM | 0.87 µM | 0.0078 µM
21 | C[S+]([O-])c1cnc2ccc(-c3cc(Cl)c(O)c(Cl)c3)cc2c1N[C@H]1CC[C@H](N)CC1 (stereo partly shown) [Example 491] | 2.9 µM | 10 µM | – | 7 µM | 10 µM | 0.0075 µM
22 | COc1cc(-c2ccc3ncc(C(=O)C4CC4)c(Nc4ccc(Cn5ccnc5)cc4)c3c2)cc(Cl)c1O [Example 490, (4-(4-((1H-imidazol-1-yl)methyl)phenylamino)-6-(3-chloro-4-hydroxy-5-methoxyphenyl)quinolin-3-yl)(cyclopropyl)methanone] | 0.86 µM | 5.8 µM | – | 0.78 µM | 0.68 µM | 0.014 µM
23 | NC[C@H]1CC[C@H](Nc2c(C(=O)C3CC3)cnc3ccc(-c4cc(Cl)c(O)c(Cl)c4)cc23)CC1 [Example 495, {4-[trans-4-(Aminomethyl)cyclohexylamino]-6-(3,5-dichloro-4-hydroxyphenyl)quinolin-3-yl}(cyclopropyl)methanone] | 0.018 µM | 3.9 µM | – | 0.045 µM | 0.35 µM | 0.0029 µM
24 | CN(C)CC1CCN(c2c([S+](C)[O-])cnc3ccc(-c4ccc(O)c(Cl)c4)cc23)CC1 (stereo not shown) [Example 466] | 1.1 µM | 6.7 µM | 0.016 µM | 0.67 µM | 1.9 µM | –
25 | O=C(c1cnc2ccc(-c3cc(F)c(O)c(Cl)c3)cc2c1N1CCN(CCN2CCCC2)CC1)C1CC1 [Example 402, (6-(3-chloro-5-fluoro-4-hydroxyphenyl)-4-(4-(2-(pyrrolidin-1-yl)ethyl)piperazin-1-yl)quinolin-3-yl)(cyclopropyl)methanone] | 0.48 µM | 5.1 µM | 0.0058 µM | 0.88 µM | 1.2 µM | –
26 | COc1cc(-c2ccc3ncc(C(=O)C4CC4)c(-c4cnc(N5CCN(C)CC5)nc4)c3c2)cc(Cl)c1O [Example 475, (6-(3-chloro-4-hydroxy-5-methoxyphenyl)-4-(2-(4-methylpiperazin-1-yl)pyrimidin-5-yl)quinolin-3-yl)(cyclopropyl)methanone] | 1.9 µM | 4.7 µM | – | 0.53 µM | 0.79 µM | 0.072 µM
